We go through one molecule from publication PMC11530593, “Structural mechanism of human HCN1 hyperpolarization-activated channel inhibition by ivabradine” (The Journal of Biological Chemistry, 2024).

One assay addresses T1, HCN1 mutant F143A (Homo sapiens, UniProt O60741, F143A).
T1 construct: Full-length WT or mutant human HCN1 were cloned into the pcDNA3.1 vector; expressed in transfected cells; host or cells: HeLa cells, pcDNA3.1 vector, transient lipofection
T1 sequence (O60741 1-890 F143A): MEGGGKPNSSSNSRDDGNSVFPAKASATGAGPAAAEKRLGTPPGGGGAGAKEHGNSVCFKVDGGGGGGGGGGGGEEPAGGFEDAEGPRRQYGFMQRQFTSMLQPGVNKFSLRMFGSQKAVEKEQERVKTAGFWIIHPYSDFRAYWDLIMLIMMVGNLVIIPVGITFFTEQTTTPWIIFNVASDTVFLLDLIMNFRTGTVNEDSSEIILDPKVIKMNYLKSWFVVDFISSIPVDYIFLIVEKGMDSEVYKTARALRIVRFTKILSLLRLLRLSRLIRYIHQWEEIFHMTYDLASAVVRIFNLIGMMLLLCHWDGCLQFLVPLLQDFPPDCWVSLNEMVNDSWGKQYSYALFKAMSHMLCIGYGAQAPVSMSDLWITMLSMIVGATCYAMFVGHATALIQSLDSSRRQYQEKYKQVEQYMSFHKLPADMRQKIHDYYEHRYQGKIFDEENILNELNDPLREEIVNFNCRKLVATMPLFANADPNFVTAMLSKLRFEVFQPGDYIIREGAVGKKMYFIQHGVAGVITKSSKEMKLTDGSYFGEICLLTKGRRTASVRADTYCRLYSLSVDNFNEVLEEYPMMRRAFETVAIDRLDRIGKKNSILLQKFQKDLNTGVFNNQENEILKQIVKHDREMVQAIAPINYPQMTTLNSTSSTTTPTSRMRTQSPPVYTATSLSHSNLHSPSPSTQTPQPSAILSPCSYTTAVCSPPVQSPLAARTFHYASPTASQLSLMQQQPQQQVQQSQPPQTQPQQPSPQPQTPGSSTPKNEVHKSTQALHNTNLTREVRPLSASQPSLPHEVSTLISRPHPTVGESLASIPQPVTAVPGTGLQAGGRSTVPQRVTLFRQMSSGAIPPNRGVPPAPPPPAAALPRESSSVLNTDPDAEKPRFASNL
In words: Whole-cell patch-clamp, Ih inhibition, HCN1 mutant. Type of assay: cell-based. The protocol:
(§1) To elucidate the contribution of these residues to the inhibitory effect of ivabradine, we introduced mutations in ivabradine-interacting residues, converting them into alanines (Fig. 2F).
(§2) Full-length WT or mutant human HCN1 were cloned into the pcDNA3.1 vector for electrophysiological experiments. HeLa cells (from Thermo Fisher Scientific) cultured in Dulbecco's modified Eagle's medium (from Solarbio Life Science) + 10% fetal bovine serum (from ExCell Bio) at 37 °C were transiently transfected using lipofection, and whole-cell patch-clamp recordings were obtained using the Axon 200B amplifier (Molecular Devices) and clampex software (https://www.moleculardevices.com/products/axon-patch-clamp-system/acquisition-and-analysis-software/pclamp-software-suite), 36 to 48 h posttransfection. The extracellular solution contained 110 mM NaCl, 0.5 mM MgCl2, 1.8 mM CaCl2, 5 mM Hepes, 30 mM KCl, and pH was adjusted to 7.4 with NaOH, while the pipette solution contained 130 mM KCl, 10 mM NaCl, 0.5 mM MgCl2, 1 mM EGTA, 5 mM Hepes, and pH was adjusted to 7.4 with KOH. The recordings were performed at room temperature, voltage-clamp mode, and filtered at 1 kHz. The sampling frequency was 10 kHz, and the series resistance was limited to 5 MΩ. To elicit channel currents, step pulses of 3 s duration ranging from −180 mV to −30 mV were applied, followed by a step to −180 mV lasting 1.25 s. The tail currents evoked by the second step were used to determine the voltage-dependent activation curves and calculate the midpoint of activation potential (V1/2). The half maximal inhibitory concentration (IC50) of drugs was determined by recording currents at a pulse of −140 mV and analyzing current amplitudes at varying drug concentrations. The IC50 value was calculated using the Hill equation.

In a further assay the target is T2, HCN1 mutant F285A (Homo sapiens, UniProt O60741, F285A).
T2 construct: Full-length WT or mutant human HCN1 were cloned into the pcDNA3.1 vector; expressed in transfected cells; host or cells: HeLa cells, pcDNA3.1 vector, transient lipofection
T2 sequence (O60741 1-890 F285A): T1 sequence (O60741 1-890 F143A) with A143F, F285A
In words: Whole-cell patch-clamp, Ih inhibition, HCN1 mutant. The conditions noted are these: electrophysiological recordings, read-out: IC50 (Fig. 2F). Type of assay: cell-based. On the procedure: as §1, §2
A general note: Patch clamp records ionic current or voltage across a cell membrane.

One may read the IC50 as the concentration at which inhibition is half-maximal.

Numbering of substitutions follows the chain as printed.

For `COc1cc2c(cc1OC)CC(=O)N(CCCN(C)C[C@H]1Cc3cc(OC)c(OC)cc31)CC2` [ivabradine], the IC50 is 32.9 µM at HCN1 mutant F143A (F143A mutant, electrophysiological recordings, read-out: IC50 (Fig. 2F)) and 13.4 µM at HCN1 mutant F285A. Further, the “change in potency by mutation” value at HCN1 mutant F143A (F143A versus WT) is “dramatic decrease”.
